This is an account of results in US8173689B2 (Novartis AG, priority 2006, dated 2012).

The structures appear in SMILES notation. Read-outs that look alike come from different tables or passages of the source.

Assay [1] has as its system MNFS60 (murine AML cells). Description: Cell viability assay in MCSF dependent MNFS60 cells (Cell Titer Glo). It is filed as cell-based. The following applies: Mus musculus, tested at about 1 μM, read-out: M-NFS-60 CP percent inhibition. The essentials: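 Cells are cultured with 10 ng/ml MCSF and test compound for 72 hrs at 37° C. in 5% CO2. CellTiter-Glo reagent is then added to gauge viable cell number, and EC50s are fitted from triplicates.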

The target of assay [2] is T1, full-length human CSF-1R receptor (Homo sapiens, UniProt P07333).
T1 construct: transfected with the full-length human CSF-1R receptor cloned in house; expressed in transfected cells; host or cells: HEK293H (Invitrogen Cat. #11631017)
T1 sequence (P07333 20-972): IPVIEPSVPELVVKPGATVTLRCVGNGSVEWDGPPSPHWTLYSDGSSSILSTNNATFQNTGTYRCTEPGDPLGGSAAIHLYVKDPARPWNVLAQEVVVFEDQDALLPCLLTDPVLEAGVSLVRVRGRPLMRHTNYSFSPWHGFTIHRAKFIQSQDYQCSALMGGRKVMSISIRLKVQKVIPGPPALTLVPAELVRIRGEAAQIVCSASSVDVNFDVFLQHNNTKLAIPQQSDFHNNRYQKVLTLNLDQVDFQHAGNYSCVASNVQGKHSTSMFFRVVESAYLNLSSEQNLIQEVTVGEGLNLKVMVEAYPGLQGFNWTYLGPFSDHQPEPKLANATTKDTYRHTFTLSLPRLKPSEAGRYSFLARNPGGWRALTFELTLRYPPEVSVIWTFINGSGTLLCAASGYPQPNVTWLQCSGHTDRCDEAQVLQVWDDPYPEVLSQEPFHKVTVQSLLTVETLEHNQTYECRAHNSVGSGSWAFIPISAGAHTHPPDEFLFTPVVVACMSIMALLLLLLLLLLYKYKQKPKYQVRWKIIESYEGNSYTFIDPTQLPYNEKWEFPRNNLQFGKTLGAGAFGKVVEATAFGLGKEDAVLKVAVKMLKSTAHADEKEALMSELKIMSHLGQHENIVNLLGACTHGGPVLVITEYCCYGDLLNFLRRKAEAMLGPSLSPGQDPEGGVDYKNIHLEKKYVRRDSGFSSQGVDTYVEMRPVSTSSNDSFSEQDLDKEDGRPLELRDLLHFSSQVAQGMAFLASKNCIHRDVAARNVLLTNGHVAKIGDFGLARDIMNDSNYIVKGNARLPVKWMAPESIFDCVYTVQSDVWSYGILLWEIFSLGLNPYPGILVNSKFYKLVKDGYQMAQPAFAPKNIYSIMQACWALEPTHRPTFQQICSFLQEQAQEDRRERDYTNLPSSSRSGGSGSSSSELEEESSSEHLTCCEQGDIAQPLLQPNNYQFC
Briefly: In vitro inhibition of CSF-1R receptor tyrosine phosphorylation in transfected HEK293H cells stimulated with MCSF. It is filed as cell-based. The following applies: HEK293-H, tested at about 1 μM; HEK293H cells; read-out: pCSF1R percent inhibition. How it is done:
The lysate was then transferred to total CSF-1R antibody coated 96-well plates that had already been blocked with 3% Blocker A from Mesoscale discovery (MSD) for 2 hours and washed afterwards. Lysates were incubated overnight at 4° C. and the plates were then washed 4× with MSD Tris Wash Buffer. […] The plates were read on the Sector 6000 instrument (MSD). Raw data was imported in Abase and EC50s calculated with XL-fit data analysis software.

For assay [3], the target named is T2, cytoplasmic domain of the human CSF-1R (Homo sapiens, UniProt P07333).
T2 construct: Recombinant protein corresponding to the cytoplasmic domain of the human CSF-1R; purchased Invitrogen Corporation, Carlsbad, Calif; PV3249
T2 sequence (P07333 539-972 limits assumed): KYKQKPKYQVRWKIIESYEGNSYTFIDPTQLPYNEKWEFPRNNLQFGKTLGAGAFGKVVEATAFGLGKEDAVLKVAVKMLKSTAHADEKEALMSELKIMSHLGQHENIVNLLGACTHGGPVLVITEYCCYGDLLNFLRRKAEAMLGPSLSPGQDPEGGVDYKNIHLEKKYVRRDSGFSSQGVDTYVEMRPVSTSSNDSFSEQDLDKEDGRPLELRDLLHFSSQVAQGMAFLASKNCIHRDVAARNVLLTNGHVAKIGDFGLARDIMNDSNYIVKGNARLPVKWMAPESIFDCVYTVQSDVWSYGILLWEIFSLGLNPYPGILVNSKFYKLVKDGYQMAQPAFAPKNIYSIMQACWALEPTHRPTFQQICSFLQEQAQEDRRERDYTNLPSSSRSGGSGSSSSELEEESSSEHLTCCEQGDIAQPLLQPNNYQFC
Description: In vitro kinase assay for colony stimulating factor-1 receptor (AlphaScreen). It is filed as biochemical. The note with it: tested at about 1 μM; read-out: CSF-1R percent inhibition. The essentials:
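At a low ATP level of 1 μM, phosphate transfer by the cytoplasmic-domain kinase (4 nM) was quantified with an AlphaScreen anti-phosphotyrosine bead pair.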
Background: In Alpha technology, singlet oxygen from a donor bead excites a nearby acceptor bead.

The target of the next assay is T3, kinase domain of PDGFRβ (Homo sapiens, UniProt P09619).
T3 construct: The kinase domain of PDGFRβ was assayed in 50 mM Hepes; purchased Invitrogen P3082
T3 sequence (P09619 600-962 limits assumed): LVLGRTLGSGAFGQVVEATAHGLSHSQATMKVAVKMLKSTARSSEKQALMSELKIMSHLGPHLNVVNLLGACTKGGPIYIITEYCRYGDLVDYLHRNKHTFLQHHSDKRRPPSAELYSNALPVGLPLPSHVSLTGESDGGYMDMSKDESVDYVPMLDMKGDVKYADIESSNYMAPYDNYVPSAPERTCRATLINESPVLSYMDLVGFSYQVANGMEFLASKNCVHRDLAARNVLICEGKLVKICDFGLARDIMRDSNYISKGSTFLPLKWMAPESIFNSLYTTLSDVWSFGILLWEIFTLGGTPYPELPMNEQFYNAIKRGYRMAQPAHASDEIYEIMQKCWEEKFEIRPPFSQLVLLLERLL
Briefly: Inhibition of PDGFRb kinase signaling in an in vitro biochemical assay (alphascreen). The following applies: tested at about 1 μM; read-out: PDGFRβ percent inhibition.

A further assay concerns the target T4, kinase domain of cKIT (Homo sapiens, UniProt P10721).
T4 construct: The kinase domain of cKIT was assayed in 50 mM Hepes; purchased Upstate 14-559
Briefly: Inhibition of cKIT kinase signaling in an in vitro biochemical assay (alphascreen). The note with it: tested at about 1 μM; read-out: cKit percent inhibition.

T4 sequence (P10721 589-937 limits assumed): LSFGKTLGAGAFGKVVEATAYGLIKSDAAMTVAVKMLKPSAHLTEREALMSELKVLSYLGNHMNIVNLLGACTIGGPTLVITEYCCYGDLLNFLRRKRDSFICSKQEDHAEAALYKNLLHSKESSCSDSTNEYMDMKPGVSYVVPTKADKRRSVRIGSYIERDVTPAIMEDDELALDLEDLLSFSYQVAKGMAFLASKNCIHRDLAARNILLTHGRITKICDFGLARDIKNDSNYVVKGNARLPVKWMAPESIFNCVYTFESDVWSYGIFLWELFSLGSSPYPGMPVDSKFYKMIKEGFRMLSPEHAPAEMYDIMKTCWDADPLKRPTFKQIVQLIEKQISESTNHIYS

A word on the inhibition: it is the relative decrease from the control value, in per cent. In the case of `CNC(=O)c1cc(Oc2ccc3nc(N[C@H](C)c4ccccc4)oc3c2)ccn1` [Compound 2, 4-[2-((R)-1-Phenyl-ethylamino)-benzooxazol-6-yloxy]-pyridine-2-carboxylic acid methylamide], the results for the inhibition at 1 µM in assay [1] (MNFS60 cells), in assay [2] and in assay [3] were 63%, 80% and 100%, respectively.

As for `COc1cc2nccc(Oc3ccc4nc(Nc5ccc6c(c5)OCCO6)oc4c3)c2cc1OC` [Compound 4, (2,3-Dihydro-benzo[1,4]dioxin-6-yl)-[6-(6,7-dimethoxy-quinolin-4-yloxy)-benzooxazol-2-yl]-amine], the inhibition at 1 µM came out at 100% in assay [1] (MNFS60 cells), 91% in assay [2] and 100% in assay [3].

`CNC(=O)c1cc(Oc2ccc3nc(Nc4ccc5c(c4)OCCO5)oc3c2)ccn1` [Compound 5, 4-[2-(2,3-Dihydro-benzo-[1,4]dioxin-6-ylamino)-benzooxazol-6-yloxy]-pyridin-2-carboxylic acid methylamide]: the results for the inhibition at 1 µM in assay [1] (MNFS60 cells), in assay [2] and in assay [3] were 100%, 93% and 99%, respectively.

As to `CNC(=O)c1cc(Oc2ccc3nc(N[C@@H](C)c4ccccc4)oc3c2)ccn1` [Compound 7, 4-[2-((S)-1-Phenyl-ethylamino)-benzooxazol-6-yloxy]-pyridin-2-carboxylic acid methylamide], the inhibition at 1 µM in assay [1] (MNFS60 cells) was 17%; in assay [2], 21%; in assay [3] it was 94%.

For the molecule `CNC(=O)c1cc(Oc2ccc3nc(NCc4ccccc4Cl)oc3c2)ccn1` [Compound 8, 4-[2-(2-Chloro-benzylamino)-benzooxazol-6-yloxy]-pyridin-2-carboxylic acid methylamide], the inhibition at 1 µM in assay [1] (MNFS60 cells) was 60%; in assay [2], 92%; in assay [3], 99%.

In the case of `CNC(=O)c1cc(Oc2ccc3nc(NCc4ccc(Cl)cc4Cl)oc3c2)ccn1` [Compound 9, 4-[2-(2,4-Dichloro-benzylamino)-benzooxazol-6-yloxy]-pyridin-2-carboxylic acid methylamide], the results for the inhibition at 1 µM in assay [1] (MNFS60 cells), in assay [2] and in assay [3] were 58%, 75% and 99%, respectively.

`CNC(=O)c1cc(Oc2ccc3nc(NC4CCCC(C)C4)oc3c2)ccn1` (centres unmarked) [Compound 10, 4-[2-(3-Methyl-cyclohexyl-amino)-benzooxazol-6-yloxy]-pyridine-2-carboxylic acid methylamide]: the inhibition at 1 µM turned out to be 35% at kinase domain of PDGFRβ, 62% in assay [1] (MNFS60 cells), 79% in assay [2] and 99% in assay [3].

Take `CNC(=O)c1cc(Oc2ccc3nc(N[C@H]4C[C@H]5C[C@@H]([C@@H]4C)C5(C)C)oc3c2)ccn1` [Compound 13, 4-[2-((1S,2S,3S,5R)-2,6,6-Trimethyl-bicyclo[3.1.1]hept-3-ylamino)-benzooxazol-6-yloxy]-pyridin-2-carboxylic acid methylamide]: the inhibition at 1 µM came to 65% on kinase domain of PDGFRβ, 76% in assay [1] (MNFS60 cells), 75% in assay [2] and 99% in assay [3].

As for `COc1cc2nccc(Oc3ccc4nc(N[C@H](C)c5ccccc5)oc4c3)c2cc1OC` [Compound 14, [6-(6,7-Dimethoxy-quinolin-4-yloxy)-benzooxazol-2-yl]-((R)-1-phenyl-ethyl)-amine], the inhibition at 1 µM at kinase domain of PDGFRβ is 85%; in assay [1] (MNFS60 cells), 56%; in assay [2] it was 71%; in assay [3] it was 99%.

Take `CNC(=O)c1cc(Oc2ccc3nc(N[C@H]4CCCC[C@@H]4O)sc3c2)ccn1` [Compound 137, 4-[2-((1S,2S)-2-Hydroxy-cyclohexylamino)-benzothiazol-6-yloxy]-pyridine-2-carboxylic acid methylamide]: the inhibition at 1 µM in assay [1] (MNFS60 cells) turned out to be 100%; in assay [2], 98%; in assay [3] it was 100%.

Take `Cn1cc(-c2cc(Oc3ccc4nc(NCc5ccccc5OC(F)F)sc4c3)ccn2)cn1` [Example 356, N-(2-(difluoromethoxy)benzyl)-6-(2-(1-methyl-1H-pyrazol-4-yl)pyridin-4-yloxy)benzo[d]thiazol-2-amine]: the inhibition at 1 µM was 99% at kinase domain of PDGFRβ, 100% in assay [1] (MCSF dependent MNFS60 cells), 100% on kinase domain of cKIT and 100% in assay [3].

Regarding `Cn1cc(-c2cc(Oc3ccc4nc(NC[C@@H](O)c5ccccc5)sc4c3)ccn2)cn1` [Example 357, (S)-2-(6-(2-(1-methyl-1H-pyrazol-4-yl)pyridin-4-yloxy)benzo[d]thiazol-2-ylamino)-1-phenylethanol], the inhibition at 1 µM on kinase domain of PDGFRβ came to 44%; in assay [1] (MCSF dependent MNFS60 cells), 100%; at kinase domain of cKIT, 91%; in assay [3] it was 100%.

On to `CC(C)C[C@@H](CO)Nc1nc2ccc(Oc3ccnc(-c4cnn(C)c4)c3)cc2s1` [Example 358, (S)-4-methyl-2-(6-(2-(1-methyl-1H-pyrazol-4-yl)pyridin-4-yloxy)benzo[d]thiazol-2-ylamino)pentan-1-ol], for which the inhibition at 1 µM at kinase domain of PDGFRβ came out at 99%; in assay [1] (MCSF dependent MNFS60 cells), 100%; on kinase domain of cKIT, 100%; in assay [3], 100%.

For `CNc1cc(Oc2ccc3nc(N[C@@H]4CCCC[C@H]4O)sc3c2)ccn1` [Example 368, (1R,2R)-2-(6-(2-(methylamino)pyridin-4-yloxy)benzo[d]thiazol-2-ylamino)cyclohexanol], the inhibition at 1 µM at kinase domain of PDGFRβ was found to be 8%; in assay [1] (MCSF dependent MNFS60 cells), 12%; on kinase domain of cKIT, 24%; in assay [3], 100%.

Regarding `CCNc1cc(Oc2ccc3nc(N[C@@H]4CCCC[C@H]4O)sc3c2)ccn1` [Example 369, (1R,2R)-2-(6-(2-(ethylamino)pyridin-4-yloxy)benzo[d]thiazol-2-ylamino)cyclohexanol], the inhibition at 1 µM is 12% on kinase domain of PDGFRβ, 44% in assay [1] (MCSF dependent MNFS60 cells), 26% on kinase domain of cKIT and 100% in assay [3].

For the molecule `CNC(=O)c1cc(Oc2cc(C)c3nc(NCC4CCCCC4)sc3c2)ccn1` [Example 374, 4-(2-(cyclohexylmethylamino)-4-methylbenzo[d]thiazol-6-yloxy)-N-methylpicolinamide], the inhibition at 1 µM worked out at 41% at kinase domain of PDGFRβ, 3% in assay [1] (MCSF dependent MNFS60 cells), 98% at kinase domain of cKIT and 99% in assay [3].

For the molecule `CNC(=O)c1cc(Oc2cc(Cl)c3nc(NCC4CCCCC4)sc3c2)ccn1` [Example 375, 4-(4-chloro-2-(cyclohexylmethylamino)benzo[d]thiazol-6-yloxy)-N-methylpicolinamide], the inhibition at 1 µM is 38% at kinase domain of PDGFRβ, 19% in assay [1] (MCSF dependent MNFS60 cells), 97% at kinase domain of cKIT and 100% in assay [3].

As for `CNC(=O)c1cc(Oc2ccc3nc(N[C@@H]4CCCC[C@H]4O)sc3c2C)ccn1` [Example 377, 4-(2-((1R,2R)-2-hydroxycyclohexylamino)-7-methylbenzo[d]thiazol-6-yloxy)-N-methylpicolinamide], the inhibition at 1 µM came to 49% at kinase domain of PDGFRβ, 93% in assay [1] (MCSF dependent MNFS60 cells), 75% on kinase domain of cKIT and 100% in assay [3].
